Key:
[1] = target: T1, Mtb tryptophan synthase (TrpA and TrpB-F188L) (Mycobacterium tuberculosis, UniProt P9WFX9+P9WFY1, F199L); format: biochemical
[2] = target: T1, Mtb tryptophan synthase (TrpA and TrpB-F188L); format: biochemical; remark: listed apart in the source

Row | Structure (SMILES) | L-tryptophan produced in presence of inhibitor (GF-HPLC) [1] | L-tryptophan synthesis in presence of inhibitor (TLC) [2]
1 | CNS(=O)(=O)c1ccc2c(c1)CCN2C(=O)c1ccc(C)s1 [Compound 3] | L-tryptophan was produced | 
2 | CNS(=O)(=O)c1ccc2c(c1)CCN2C(=O)c1ccccc1F [Compound 2] |  | relatively the same amount of tryptophan

— PMC5573416, “Inhibiting mycobacterial tryptophan synthase by targeting the inter-subunit interface” (Scientific Reports, 2017)
